pIC50: −log10 of the molar value. Read-outs that look alike come from different tables or passages of the source.
Key:
SETD2(1434-1711) = biological target: T1, SETD2(1434-1711) (Homo sapiens, UniProt Q9BYW2); assay: SETD2 (1434-1711) assay; type: biochemical; conditions: read-out: SETD2 (1434-1711)
T1 construct: SETD2 (1434-1711) Assay; catalogue N/A
T1 sequence (Q9BYW2 1434-1711): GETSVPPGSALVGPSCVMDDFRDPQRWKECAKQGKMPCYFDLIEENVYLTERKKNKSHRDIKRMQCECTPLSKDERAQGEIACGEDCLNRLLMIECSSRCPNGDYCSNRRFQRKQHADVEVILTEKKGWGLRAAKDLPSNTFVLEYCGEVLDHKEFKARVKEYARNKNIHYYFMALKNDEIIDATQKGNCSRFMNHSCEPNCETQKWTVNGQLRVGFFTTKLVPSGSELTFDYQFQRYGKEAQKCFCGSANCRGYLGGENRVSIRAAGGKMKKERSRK

H3K36me3 in A549 cells = assay: In-Cell Western (ICW) assay of SETD2 inhibitors (A549 assay); type: cell-based, human; conditions: A549 cells, read-out: SETD2 A549
Summary of the method: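 A549 cells seeded at 4,000/well onto compound and incubated 3 days at 37° C. Methanol-fixed cells stained overnight at 4° C with anti-H3K36me3 (1:1000), then IRDye 800CW secondary with DRAQ5 DNA counterstain. Plates read by Licor imaging at 700 and 800 channels.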

Row | SMILES | pIC50 (SETD2(1434-1711)) | pIC50 (H3K36me3 in A549 cells) | pIC50 (H3K36me3 in A549 cells; Homo sapiens)
1 | CC(=O)N1CCN(c2cc(NC(=O)c3cc4c(F)ccc(C)c4[nH]3)cc(C(F)(F)F)c2)CC1 [compound 242] | 7.00 | 6.22 | –
2 | Cc1ccc(F)c2cc(C(=O)Nc3cccc(N4CCN(C(C)C)CC4)c3)[nH]c12 [compound 243] | 7.30 | 6.22 | –
3 | Cc1ccc(F)c2cc(C(=O)Nc3cccc(CCN4CCN(C)CC4)c3)[nH]c12 [compound 244] | 7.10 | 6.22 | –
4 | Cc1ccc(F)c2cc(C(=O)Nc3cccc(N4CC5CCN(C)C5C4)c3)[nH]c12 (centres unmarked) [compound 245] | 8.00 | 6.22 | –
5 | Cc1ccc(F)c2cc(C(=O)Nc3cc(Cl)cc(N4CCC(CCCN)CC4)c3)[nH]c12 [compound 246] | 8.05 | 6.22 | –
6 | Cc1ccc(F)c2cc(C(=O)Nc3cccc4c3cnn4C3CCN(C)CC3)[nH]c12 [compound 247] | 7.30 | – | 6.22
7 | CC(=O)N1CCCN(c2cccc(NC(=O)c3cc4c(F)ccc(C)c4[nH]3)c2)CC1 [compound 248] | 7.00 | 6.22 | –
8 | Cc1ccc(F)c2cc(C(=O)Nc3cccc(-c4ncon4)c3)[nH]c12 [compound 249] | 6.70 | – | 6.22
9 | Cc1ccc(F)c2cc(C(=O)Nc3cccc(N4CC5CCC(C4)O5)c3)[nH]c12 [compound 250] | 7.00 | 6.22 | –
10 | Cc1ccc(F)c2cc(C(=O)Nc3cccc(C45CCC(N(C)C)CC4C5)c3)[nH]c12 (centres unmarked) [compound 251] | 8.00 | 6.22 | –
11 | Cc1ccc(F)c2cc(C(=O)Nc3cccc(-c4cn[nH]c4)c3)[nH]c12 [compound 252] | 6.70 | 6.22 | –
12 | COCC1(N(C)C)CCN(c2cccc(NC(=O)c3cc4c(F)ccc(C)c4[nH]3)c2)CC1 [compound 253] | 7.30 | 6.22 | –
13 | Cc1ccc(F)c2cc(C(=O)Nc3cccc(N4CCC(O)(CN(C)C)CC4)c3)[nH]c12 [compound 254] | 7.22 | – | 6.22
14 | Cc1ccc(F)c2cc(C(=O)Nc3cccc(C4(C#N)CCC(N(C)C)CC4)c3)[nH]c12 (centres unmarked) [compound 255] | 7.52 | – | 6.22
15 | Cc1ccc(F)c2cc(C(=O)Nc3cccc(CC(=O)N(C)C)c3)[nH]c12 [compound 256] | 6.70 | – | 6.22
16 | CC(=O)N1C2CC1CN(c1cccc(NC(=O)c3cc4c(F)ccc(C)c4[nH]3)c1)C2 [compound 257] | 6.70 | – | 6.22
17 | Cc1cc(CCN2CCN(C)CC2)cnc1C(Cc1ccccc1)NC(=O)c1cc2c(F)ccc(C)c2[nH]1 (centres unmarked) [compound 258] | 7.40 | – | 6.22
18 | Cc1ccc(F)c2cc(C(=O)Nc3cccc(N4CCC5(CCN(CC(F)F)CC5)C4)c3)[nH]c12 [compound 259] | 7.00 | – | 6.22
19 | Cc1ccc(F)c2cc(C(=O)Nc3cccc(N4CCN(C(=O)OC(C)(C)C)CC4)c3)[nH]c12 [compound 260] | 6.70 | – | 6.15
20 | Cc1ccc(F)c2cc(C(=O)Nc3cccc(-c4ncco4)c3)[nH]c12 [compound 261] | 7.10 | – | 6.15
21 | COC1(C)CCN(c2cccc(NC(=O)c3cc4c(F)ccc(C)c4[nH]3)c2)CC1 [compound 262] | 6.70 | – | 6.15

Row | SMILES | pIC50 (SETD2(1434-1711)) | pIC50 (H3K36me3 in A549 cells) | pIC50 (H3K36me3 in A549 cells; Homo sapiens)
22 | CC(=O)Nc1cccc(-c2cccc(NC(=O)c3cc4c(F)ccc(C)c4[nH]3)c2)c1 [compound 263] | 6.15 | – | 6.15
23 | Cc1ccc(F)c2cc(C(=O)Nc3cccc([C@H]4CC[C@H](N(C)C)C4)c3)[nH]c12 [compound 264] | 7.70 | – | 6.15
24 | Cc1ccc(F)c2cc(C(=O)Nc3cccc(N4CCOCC4CO)c3)[nH]c12 (centres unmarked) [compound 265] | 6.70 | – | 6.15
25 | Cc1ccc(F)c2cc(C(=O)Nc3cccc(-c4cccc(CN(C)C)c4)c3)[nH]c12 [compound 266] | 7.22 | – | 6.15
26 | CC(=O)N1CCC(C(N)=O)(c2cc(F)cc(NC(=O)c3cc4c(F)ccc(C)c4[nH]3)c2)CC1 [compound 267] | 8.00 | – | 6.15
27 | Cc1ccc(F)c2cc(C(=O)Nc3cccc(N4CCC(O)(C5CCN(C)CC5)CC4)c3)[nH]c12 [compound 268] | 7.22 | – | 6.15
28 | COc1ccnc(C(NC(=O)c2cc3c(F)ccc(C)c3[nH]2)C2CC2)c1C (centres unmarked) [compound 269] | 7.00 | – | 6.15
29 | Cc1ccc(NC(=O)c2cc3c(F)ccc(C)c3[nH]2)cc1N1CCN(C)CC1 [compound 270] | 7.30 | – | 6.10
30 | CC(=O)N1CCN(c2cc(F)cc(NC(=O)c3cc4c(F)cccc4[nH]3)c2)CC1 [compound 271] | 6.70 | – | 6.10
31 | Cc1ccc(F)c2cc(C(=O)Nc3cccc(-c4cccc5nccn45)c3)[nH]c12 [compound 272] | 7.00 | – | 6.10
32 | Cc1cc(Cn2cc[nH]c2=O)cnc1C(NC(=O)c1cc2c(F)ccc(C)c2[nH]1)C1CC1 (centres unmarked) [compound 273] | 6.70 | – | 6.10
33 | Cc1ccc(F)c2cc(C(=O)Nc3cc(CF)cc(N4CCC(N(C)C)CC4)c3)[nH]c12 [compound 274] | 7.40 | – | 6.10
34 | Cc1ccc(F)c2cc(C(=O)Nc3cccc(-n4cnc(CN(C)C)n4)c3)[nH]c12 [compound 276] | 7.05 | – | 6.05
35 | Cc1ccc(F)c2cc(C(=O)Nc3cccc(N4CCN(C)CC4CO)c3)[nH]c12 (centres unmarked) [compound 277] | 6.70 | – | 6.05
36 | Cc1ccc(F)c2cc(C(=O)Nc3cccc(-c4ccc5cncn5c4)c3)[nH]c12 [compound 278] | 7.15 | 6.05 | –
37 | Cc1ccc(F)c2cc(C(=O)Nc3cccc(N4CCCN(C)CC4)c3)[nH]c12 [compound 279] | 7.40 | – | 6.05
38 | Cc1ccc(F)c2cc(C(=O)Nc3cccc(N4CCN(C(C)C)CC4C)c3)[nH]c12 (centres unmarked) [compound 280] | 7.00 | – | 6.05
39 | Cc1ccc(F)c2cc(C(=O)Nc3cccc(-n4cnnc4)c3)[nH]c12 [compound 281] | 6.70 | – | 6.05
40 | Cc1ccc(F)c2cc(C(=O)Nc3cccc(C4CCC(N(C)C)C4)c3)[nH]c12 (centres unmarked) [compound 282] | 7.40 | – | 6.00
41 | Cc1ccc(F)c2cc(C(=O)Nc3cccc(C4CCNC4)c3)[nH]c12 (centres unmarked) [compound 283] | 7.40 | – | 6.00
42 | Cc1ccc(F)c2cc(C(=O)Nc3cccc(N4CC5CC4CO5)c3)[nH]c12 (centres unmarked) [compound 284] | 6.70 | – | 6.00

Row | SMILES | pIC50 (SETD2(1434-1711)) | pIC50 (H3K36me3 in A549 cells) | pIC50 (H3K36me3 in A549 cells; Homo sapiens)
43 | Cc1ccc(F)c2cc(C(=O)Nc3cccc(-c4ccccn4)c3)[nH]c12 [compound 285] | 7.40 | – | 6.00
44 | Cc1ccc(F)c2cc(C(=O)Nc3cccc(-c4cn5ccccc5n4)c3)[nH]c12 [compound 286] | 7.00 | – | 6.00
45 | Cc1ccc(F)c2cc(C(=O)Nc3cccc(N4CCOC5(CC5)C4)c3)[nH]c12 [compound 287] | 6.70 | – | 6.00
46 | CNC(=O)CCCc1cccc(NC(=O)c2cc3c(F)ccc(C)c3[nH]2)c1 [compound 288] | 6.52 | 6.00 | –
47 | Cc1ccc(F)c2cc(C(=O)Nc3cccc(N4CC(C)OCC4C)c3)[nH]c12 (centres unmarked) [compound 289] | 6.40 | – | 5.96
48 | Cc1ccc(F)c2cc(C(=O)Nc3cccc(-c4cnn5ccccc45)c3)[nH]c12 [compound 290] | 6.40 | – | 5.96
49 | Cc1ccc(F)c2cc(C(=O)Nc3cccc(N4C5CCC4COC5)c3)[nH]c12 [compound 291] | 6.52 | – | 5.96
50 | CC(=O)N1CC2CC1CN2c1cccc(NC(=O)c2cc3c(F)ccc(C)c3[nH]2)c1 (centres unmarked) [compound 292] | 6.15 | 5.96 | –
51 | CNC(=O)CCc1cccc(NC(=O)c2cc3c(F)ccc(C)c3[nH]2)c1 [compound 293] | 6.40 | – | 5.96
52 | Cc1ccc(F)c2cc(C(=O)Nc3cccc(C4CCC5C(CCN5C)C4)c3)[nH]c12 (centres unmarked) [compound 294] | 7.52 | – | 5.96
53 | CC(=O)N1CCN(c2nccc(NC(=O)c3cc4c(F)ccc(C)c4[nH]3)n2)CC1 [compound 295] | 6.52 | – | 5.96
54 | Cc1ccc(F)c2cc(C(=O)Nc3cccc(-c4ncno4)c3)[nH]c12 [compound 296] | 7.00 | – | 5.96
55 | Cc1ccc(F)c2cc(C(=O)Nc3cccc(N4CCCCC4)c3)[nH]c12 [compound 297] | 7.00 | – | 5.96
56 | CC(=O)N1[C@@H](C)CN(c2cccc(NC(=O)c3cc4c(F)ccc(C)c4[nH]3)c2)C[C@@H]1C [compound 298] | 6.52 | – | 5.96
57 | Cc1ccc(F)c2cc(C(=O)Nc3cccc(-c4ncn5ccccc45)c3)[nH]c12 [compound 299] | 6.70 | – | 5.96
58 | Cc1ccc(F)c2cc(C(=O)Nc3cccc(CC(N)=O)c3)[nH]c12 [compound 300] | 6.70 | – | 5.92
59 | Cc1ccc(F)c2cc(C(=O)Nc3cccc(N4CC[C@@H](N(C)C)[C@@H](F)C4)c3)[nH]c12 [compound 301] | 7.00 | – | 5.92
60 | Cc1ccc(F)c2cc(C(=O)Nc3cccc([C@@H]4CC[C@H](N(C)C)C4)c3)[nH]c12 [compound 302] | 7.52 | – | 5.92
61 | Cc1ccc(F)c2cc(C(=O)Nc3cccc(N4CC[C@@H](N(C)C)C[C@@H]4C)c3)[nH]c12 [compound 303] | 7.22 | – | 5.92

Source: US12116358B2, “Substituted indoles and methods of use thereof” (EPIZYME, INC., priority 2018, dated 2024)
